Reference: patent US20250042850A1, “PHARMACEUTICAL COMPOUNDS AND METHODS OF MAKING AND USING THE SAME” (Athos Therapeutics, Inc., priority 2021, published 2025)
Entries after “also recorded” stand apart in the source; their conditions may differ. Read-outs that look alike come from different tables or passages of the source. One block for each compound: values may come before it.

Legend:
Vanin-1 = Vanin-1 (Homo sapiens (Human), UniProt O95497); assay: VNN1 inhibitor binding assay (Kd, affinity beads, qPCR readout); conditions: read-out: Vanin Affinity (nM), Vanin-1 Binding constants
Chain of Vanin-1 (O95497 22-513): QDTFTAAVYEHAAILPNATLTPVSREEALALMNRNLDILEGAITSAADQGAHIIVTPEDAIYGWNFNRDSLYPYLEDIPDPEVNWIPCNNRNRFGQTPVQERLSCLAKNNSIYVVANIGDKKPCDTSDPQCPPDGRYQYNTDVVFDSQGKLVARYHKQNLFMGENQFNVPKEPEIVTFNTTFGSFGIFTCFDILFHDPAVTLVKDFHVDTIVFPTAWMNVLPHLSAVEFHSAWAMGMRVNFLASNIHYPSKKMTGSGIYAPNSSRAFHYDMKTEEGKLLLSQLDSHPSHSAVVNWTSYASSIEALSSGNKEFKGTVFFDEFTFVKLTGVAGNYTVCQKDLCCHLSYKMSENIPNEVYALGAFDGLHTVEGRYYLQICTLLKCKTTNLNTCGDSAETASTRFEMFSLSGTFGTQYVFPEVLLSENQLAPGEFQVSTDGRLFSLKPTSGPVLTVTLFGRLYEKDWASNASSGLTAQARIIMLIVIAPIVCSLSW
Method: (§1) Test compounds were prepared as 111X stocks in 100% DMSO. Kd values were determined using an 11-point 3-fold compound dilution series with three DMSO control points. […] The compounds were then diluted directly into the assays such that the final concentration of DMSO was 0.9%. All reactions were performed in polypropylene 384-well plate. Each was a final volume of 0.02 ml. […] The beads were then re-suspended in elution buffer (1×PBS, 0.05% Tween 20, 0.5 μM non-biotinylated affinity ligand) and incubated at room temperature with shaking for 30 minutes. The kinase concentration in the eluates was measured by qPCR.
Binding constants were calculated with a standard dose-response curve using the Hill equation:
The Hill Slope was set to −1. Curves were fitted using a non-linear least square fit with the Levenberg-Marquardt algorithm. The binding data is summarized in Table 1 where A is less than 100 nM, B is 100 to 500 nM, and C is greater than 500 nM.
as §1, with “are” for “were”, “is” for “was”, “reactions” for “reactions were”
Binding constants are calculated with a standard dose-response curve using the Hill equation:
The Hill Slope was set to −1. Curves were fitted using a non-linear least square fit with the Levenberg-Marquardt algorithm. The binding data is summarized in Table 4 where A is less than 100 nM, B is 100 to 500 nM, and C is greater than 500 nM.

[1] = system: TNF-alpha (TNFA), interleukin 6 (IL6), interleukin 1beta (IL1B), MCP1 and interleukin 8 (IL8); assay: Immune cellular assay, cytokine ELISA multiplex in LPS-treated THP-1 derived macrophages; assay type: cell-based, human; conditions: 1 μM, THP-1 macrophages, 100 ng/mL LPS for 4 or 24 hours
Method: The anti-inflammatory properties of the four VNN1 inhibitors (Compound 1, Compound 2, Compound 3, and Compound 80) were evaluated in an immune cellular assay targeting key pro-inflammatory cytokines involved in the pathogenesis of multiple autoimmune disease.
Specifically, THP-1 human monocytes were grown in 6-well plates (RPMI 1640+10% FBS+1% P/S). After washing with PBS the THP-1 cells were differentiated into macrophages using 20 nM of phorbol 12-myristate 13-acetate (PMA) for 24 hrs. Compound 1, Compound 2, Compound 3, and Compound 80 (1 μM) were added into the macrophages, which are incubated for 4 hours before the addition of 100 ng/mL lipopolysaccharide (LPS) for either 4 or 24 hours. Next, the macrophages are collected via centrifugation at 1.2K rpm for 5 min and use their media to evaluate cytokine protein levels by using the Bio-rad Cytokine ELISA multiplex assay (cat. No M5000031YV). The supernatants from macrophages treated only with only LPS+PMA are collected and use as negative controls.
The anti-inflammatory properties of the VNN1 inhibitors Compound 5, Compound 9, Compound 10, Compound 13, Compound 14, Compound 16, Compound 20, Compound 21, Compound 26, Compound 23, and Compound 24 are evaluated using the immune cellular assay outlined in Example 6. Suppression of TNF-alpha (TNFA), interleukin 6 (IL6), interleukin 1beta (IL1B), MCP1 and interleukin 8 (IL8) is determined.

CYP1A2 = CYP1A2 (Homo sapiens (Human), UniProt P05177); assay: Cytochrome P450 inhibition assay, substrate cocktail in human liver microsome; assay type: in vitro ADME; conditions: microsomes
Chain of CYP1A2 (P05177 whole entry): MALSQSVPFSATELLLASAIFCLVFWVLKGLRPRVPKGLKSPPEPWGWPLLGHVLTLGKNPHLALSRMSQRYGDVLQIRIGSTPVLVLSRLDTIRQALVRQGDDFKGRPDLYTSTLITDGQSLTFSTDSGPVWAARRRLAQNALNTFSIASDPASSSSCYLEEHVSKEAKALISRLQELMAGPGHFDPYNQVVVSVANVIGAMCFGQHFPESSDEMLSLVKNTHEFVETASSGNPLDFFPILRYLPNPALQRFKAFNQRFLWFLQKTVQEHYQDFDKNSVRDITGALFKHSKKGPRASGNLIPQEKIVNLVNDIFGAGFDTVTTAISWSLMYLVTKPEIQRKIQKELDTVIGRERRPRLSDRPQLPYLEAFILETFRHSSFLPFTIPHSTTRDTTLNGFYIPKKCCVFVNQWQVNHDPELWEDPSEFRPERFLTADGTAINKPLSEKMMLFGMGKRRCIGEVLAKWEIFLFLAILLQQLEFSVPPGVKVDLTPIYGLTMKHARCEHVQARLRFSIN
Method: (§2) Cytochrome P450 inhibition of a drug is a key factor in determining pharmacokinetic drug-drug interactions. The objective of this study is to evaluate the inhibition potential of VNN1 inhibitors on six (6) major human cytochrome P450 enzymes, including CYP1A2, CYP2C8, CYP2C9, CYP2C19, CYP2D6, and CYP3A4. Inhibition was determined by using a substrate cocktail and analyzing the rate of specific metabolites formation. The cytochrome P450 inhibition assay was developed using a cocktail consisting of six (6) probe substrates ethoxy-resorufin (CYP1A2), rosiglitazone (CYP2C8), diclofenac (CYP2C9), S-mephenytoin (CYP2C19), dextromethorphan (CYP2D6), and midazolam (CYP3A4). The cocktail was incubated in human liver microsome with NADPH regenerating system (NRS) in a shaking bath at 37±2° C. The formation of specific metabolites was monitored by LC/MS/MS. Test compound was added to the cocktail-liver microsome mixture at varying concentrations and its effect on cytochrome P450 activity was determined by analyzing the rate of specific metabolite formation. The percent inhibition was calculated and plotted with reference to the concentration, and the IC50 value for inhibition was derived by fitting the data with a standard sigmoidal dose-response equation via MLA “Quest Graph™ ED50 Calculator.” AAT Bioquest, Inc, 17 Sep. 2020, aatbio.com/tools/ed50-calculator. […]. […].
(§3) Inhibition by Cytochrome P450 is determined using a substrate cocktail and analyzing the rate of specific metabolites formation outlined in Example 21. The following structures were tested: Compound 5, Compound 9, Compound 10, Compound 13, Compound 14, Compound 16, Compound 20, Compound 21, Compound 23, Compound 24, and Compound 25.

CYP2C19 = CYP2C19 (Homo sapiens (Human), UniProt P33261); assay: as above; assay type: in vitro ADME; conditions: CYP isozyme 2C19, human liver microsome
Chain of CYP2C19 (P33261 whole entry): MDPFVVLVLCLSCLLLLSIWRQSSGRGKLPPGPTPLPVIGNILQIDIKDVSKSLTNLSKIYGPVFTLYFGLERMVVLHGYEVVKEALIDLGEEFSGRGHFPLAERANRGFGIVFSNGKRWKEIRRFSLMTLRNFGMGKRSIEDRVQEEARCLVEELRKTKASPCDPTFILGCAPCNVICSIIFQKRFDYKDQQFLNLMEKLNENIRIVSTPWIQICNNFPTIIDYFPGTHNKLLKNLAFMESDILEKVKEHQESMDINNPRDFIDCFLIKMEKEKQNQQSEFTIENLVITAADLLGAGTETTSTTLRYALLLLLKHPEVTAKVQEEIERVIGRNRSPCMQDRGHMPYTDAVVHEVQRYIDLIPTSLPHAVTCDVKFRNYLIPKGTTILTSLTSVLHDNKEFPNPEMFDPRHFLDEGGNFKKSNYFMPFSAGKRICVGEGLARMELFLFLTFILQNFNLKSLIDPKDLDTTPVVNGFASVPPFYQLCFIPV
Method: as §2, §3

CYP2C8 = CYP2C8 (Homo sapiens (Human), UniProt P10632); assay: as above; assay type: in vitro ADME; conditions: microsomes
Chain of CYP2C8 (P10632 whole entry): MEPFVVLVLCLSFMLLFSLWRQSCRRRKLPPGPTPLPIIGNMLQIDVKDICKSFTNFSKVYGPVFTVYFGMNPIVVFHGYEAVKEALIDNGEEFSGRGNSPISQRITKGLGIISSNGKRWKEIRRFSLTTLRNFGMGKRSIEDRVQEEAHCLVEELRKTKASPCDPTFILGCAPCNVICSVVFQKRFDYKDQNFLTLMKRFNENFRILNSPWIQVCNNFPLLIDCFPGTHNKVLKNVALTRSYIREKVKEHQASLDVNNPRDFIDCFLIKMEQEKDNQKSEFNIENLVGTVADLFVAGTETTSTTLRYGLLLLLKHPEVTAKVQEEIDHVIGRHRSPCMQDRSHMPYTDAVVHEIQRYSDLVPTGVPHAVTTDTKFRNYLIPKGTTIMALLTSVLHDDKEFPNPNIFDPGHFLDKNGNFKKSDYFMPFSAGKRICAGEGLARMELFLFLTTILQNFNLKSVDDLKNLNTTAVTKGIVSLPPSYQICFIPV
Method: as §2, §3

CYP2C9 = CYP2C9 (Homo sapiens (Human), UniProt P11712); assay: as above; assay type: in vitro ADME; conditions: microsomes
Chain of CYP2C9 (P11712 whole entry): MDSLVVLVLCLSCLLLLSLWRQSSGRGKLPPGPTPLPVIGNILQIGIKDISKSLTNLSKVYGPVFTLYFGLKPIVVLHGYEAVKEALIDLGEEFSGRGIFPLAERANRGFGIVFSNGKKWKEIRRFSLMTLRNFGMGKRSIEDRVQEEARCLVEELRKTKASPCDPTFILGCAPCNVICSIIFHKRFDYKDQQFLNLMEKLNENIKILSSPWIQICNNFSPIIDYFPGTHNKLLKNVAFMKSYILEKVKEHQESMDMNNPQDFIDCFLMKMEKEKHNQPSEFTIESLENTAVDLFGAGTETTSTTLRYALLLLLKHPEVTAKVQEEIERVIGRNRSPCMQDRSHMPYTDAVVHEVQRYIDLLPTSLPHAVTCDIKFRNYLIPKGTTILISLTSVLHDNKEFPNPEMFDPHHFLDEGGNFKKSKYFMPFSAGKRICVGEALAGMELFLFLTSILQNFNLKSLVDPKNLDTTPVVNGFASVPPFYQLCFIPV
Method: as §2, §3

CYP2D6 = CYP2D6 (Homo sapiens (Human), UniProt P10635); assay: as above; assay type: in vitro ADME; conditions: microsomes
Chain of CYP2D6 (P10635 whole entry): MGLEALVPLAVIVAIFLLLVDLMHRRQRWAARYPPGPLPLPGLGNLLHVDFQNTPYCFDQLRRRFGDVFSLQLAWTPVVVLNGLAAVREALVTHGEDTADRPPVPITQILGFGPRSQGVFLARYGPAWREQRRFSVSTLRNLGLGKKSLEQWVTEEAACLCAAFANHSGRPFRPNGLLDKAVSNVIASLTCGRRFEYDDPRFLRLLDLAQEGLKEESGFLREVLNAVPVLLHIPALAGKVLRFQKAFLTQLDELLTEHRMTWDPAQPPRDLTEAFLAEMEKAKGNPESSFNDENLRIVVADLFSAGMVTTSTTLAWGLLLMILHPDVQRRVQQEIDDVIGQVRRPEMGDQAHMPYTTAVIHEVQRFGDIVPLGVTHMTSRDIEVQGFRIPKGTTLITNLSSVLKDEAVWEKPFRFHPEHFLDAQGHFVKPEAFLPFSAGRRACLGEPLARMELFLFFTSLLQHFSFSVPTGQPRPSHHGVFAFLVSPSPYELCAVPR
Method: as §2, §3

CYP3A4 = CYP3A4 (Homo sapiens (Human), UniProt P08684); assay: as above; assay type: in vitro ADME; conditions: microsomes
Chain of CYP3A4 (P08684 whole entry): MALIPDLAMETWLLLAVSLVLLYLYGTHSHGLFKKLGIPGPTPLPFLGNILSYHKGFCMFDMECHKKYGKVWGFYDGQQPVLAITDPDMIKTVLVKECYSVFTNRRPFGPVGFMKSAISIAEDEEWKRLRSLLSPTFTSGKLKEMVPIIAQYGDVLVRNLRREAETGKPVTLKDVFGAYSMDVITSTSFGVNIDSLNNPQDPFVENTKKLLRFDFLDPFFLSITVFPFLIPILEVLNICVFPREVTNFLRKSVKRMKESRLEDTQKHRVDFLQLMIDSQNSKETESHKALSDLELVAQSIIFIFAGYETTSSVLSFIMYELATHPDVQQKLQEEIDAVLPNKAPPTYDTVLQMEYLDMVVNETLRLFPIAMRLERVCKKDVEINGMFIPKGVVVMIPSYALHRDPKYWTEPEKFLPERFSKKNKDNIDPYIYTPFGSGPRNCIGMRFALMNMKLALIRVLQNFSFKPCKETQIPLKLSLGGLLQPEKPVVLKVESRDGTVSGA
Method: as §2, §3

TNF-alpha (TNFA) = assay: Cellular assay, TNF-alpha ELISA in LPS-treated THP-1 cells; assay type: cell-based; conditions: 1 μM, THP-1 human monocytes, LPS 50 ng/ml, p<0.05
Method: THP-1 cells were grown to confluence and plated in 6-well plates. PMA (25 nM) was added to the medium and replaced with non-PMA containing medium 24 hrs later. ATH compounds (1 μM) or vehicle (0.1% DMSO) were added and allowed to incubate. After 4 hrs LPS (50 ng/ml) was added without replacement of the medium and supernatants were collected after 4 and 24 hrs. Media were placed on ice for cytokine detection using ELISA (Quantikine, R&D Systems).
VNN1 inhibitors Compound 1 and Compound 2 show suppression of TNF-alpha (TNFA) expression after LPS (lipopolysaccharide) treatment, in THP-1 human monocytes (FIG. 3, p<0.05 for both).

[2] = parallel artificial membrane permeation assay (PAMPA); conditions: 20 μM in PBS/MeOH 90:10, 5 hours at room temperature
Method: (§4) The permeability of compounds was evaluated with the parallel artificial membrane permeation assay (PAMPA) as an in vivo model of passive diffusion across a porous filter coated with a lipid/oil/lipid tri-layer artificial membrane. […] Donor solutions of test compound (300 μL, 20 μM in PBS/MeOH 90:10) were added to each well of the donor plate. 200 μL of PBS/MeOH 90:10 was added to each well of the acceptor plate. The acceptor plate was coupled with the donor plate and incubated for 5 hours at room temperature (RT) without agitation. In each plate, test compound was tested in triplicate. At the end of the incubation, test compound concentration in the initial donor solution, acceptor and the donor wells were determined using LC/MS/MS. Permeability of test compound was calculated based on the formula described in “Analytical Method”.

[3] = for Permeability, Pe: PAMPA, 5 h, 20 μM
Method: as §4

[4] = positive controls, published class; cited from earlier work
in vitro = conditions: PAMPA
Method: as §4

Kd (Vanin-1): > 500 nM
Structure (SMILES): Cn1cc(C(=O)Cc2ccccc2)cc1C(=O)c1ccccc1F [Compound 46, 1-(5-(2-fluorobenzoyl)-1-methyl-1H-pyrrol-3-yl)-2-phenylethan-1-one]

Kd (Vanin-1): 100 to 500 nM | IC50 (CYP1A2): > 100 µM | IC50 (CYP2C19): 50.6 µM | IC50 (CYP2C8): > 100 µM | IC50 (CYP2C9): > 100 µM | IC50 (CYP2D6): > 100 µM | IC50 (CYP3A4): > 100 µM | Permeability, Pe [2]: 23.6 ×10⁻⁶ cm/s
Structure (SMILES): O=C(Cc1ccccc1)c1ccn(C(=O)c2ccccc2F)c1 [Compound 1, 1-(1-(2-fluorobenzoyl)-1H-pyrrol-3-yl)-2-phenylethan-1-one]
activity against IL6, TNFA and MCP1 [1]: highly potent activity | suppression of TNF-alpha (TNFA) expression after LPS treatment (TNF-alpha (TNFA)): suppression; also recorded: significantly inhibits

Kd (Vanin-1): 100 to 500 nM
Structure (SMILES): Cn1c(C(=O)Cc2ccccc2)ccc1C(=O)c1ccccn1 [Compound 25, 1-(1-methyl-5-picolinoyl-1H-pyrrol-2-yl)-2-phenylethan-1-one]

Kd (Vanin-1): < 100 nM
Structure (SMILES): Cn1c(C(=O)NC(C)(C)C)ccc1C(=O)c1ccccc1F [Compound 43, N-(tert-butyl)-5-(2-fluorobenzoyl)-1-methyl-1H-pyrrole-2-carboxamide]

Kd (Vanin-1): > 500 nM
Structure (SMILES): O=C(Cc1ccccc1)c1c[nH]c(C(=O)c2ccccc2F)c1 [Compound 47, 1-(5-(2-fluorobenzoyl)-1H-pyrrol-3-yl)-2-phenylethan-1-one]

Kd (Vanin-1): < 100 nM
Structure (SMILES): Cn1c(C(=O)Cc2ccccc2)ccc1C(=O)c1ccccc1F [Compound 22, 1-(5-(2-fluorobenzoyl)-1-methyl-1H-pyrrol-2-yl)-2-phenylethan-1-one]

The remaining lines, values behind:

Structure (SMILES): Cn1cccc1C(=O)Cc1ccccc1 [Compound 80, 1-(1-methyl-1H-pyrrol-2-yl)-2-phenylethan-1-one]
activity against IL6, TNFA and MCP1 [1]: highly potent activity

Structure (SMILES): Cn1cc(C(=O)c2ccccc2F)cc1C(=O)N1CCC2(CCOCC2)C1 [Compound 77, (4-(2-fluorobenzoyl)-1-methyl-1H-pyrrol-2-yl) (8-oxa-2-azaspiro[4.5]decan-2-yl) methanone]
Kd (Vanin-1): < 100 nM

Structure (SMILES): O=C(O)Cc1ccccc1Nc1c(Cl)cccc1Cl [Diclofenac]
Permeability, Pe [3]: 10.9 ×10⁻⁶ cm/s | published permeability [4]: high

Structure (SMILES): CC(=O)N(C)[C@@H]1CCN(C(=O)c2cc(C(=O)c3ccccc3F)cn2C)C1 [Compound 78, (R)—N-(1-(4-(2-fluorobenzoyl)-1-methyl-1H-pyrrole-2-carbonyl)pyrrolidin-3-yl)-N-methylacetamide]
Kd (Vanin-1): < 100 nM

Structure (SMILES): O=C(Cc1ccccc1)c1ccn(Cc2c(F)cccc2F)c1 [Compound 2, 1-(1-(2,6-difluorobenzyl)-1H-pyrrol-3-yl)-2-phenylethan-1-one]
Kd (Vanin-1): 100 to 500 nM | IC50 (CYP1A2): > 100 µM | IC50 (CYP2C19): 15.3 µM | IC50 (CYP2C8): 65.5 µM | IC50 (CYP2C9): 63.4 µM | IC50 (CYP2D6): 27 µM | IC50 (CYP3A4): 73.7 µM | activity against IL6, TNFA and MCP1 [1]: highly potent activity | suppression of TNF-alpha (TNFA) expression after LPS treatment (TNF-alpha (TNFA)): suppression; also recorded: significantly inhibits | Permeability, Pe [3]: 13.6 ×10⁻⁶ cm/s

Structure (SMILES): CCN1CCCC1CNC(=O)c1cc(S(N)(=O)=O)ccc1OC (stereo not shown) [Sulpiride]
PAMPA permeability Classification [3]: Low/Medium | published permeability [4]: low | Papp at 5 h, 20 μM (in vitro): 0.0392 ×10⁻⁶ cm/s

Structure (SMILES): Cn1cc(C(=O)c2ccccc2F)cc1C(=O)O [Compound 76, 4-(2-fluorobenzoyl)-1-methyl-1H-pyrrole-2-carboxylic acid]
Kd (Vanin-1): > 500 nM

Structure (SMILES): Cn1c(C(=O)c2ccccc2F)ccc1C(=O)N1CCC2(CCOCC2)C1 [Compound 33, (5-(2-fluorobenzoyl)-1-methyl-1H-pyrrol-2-yl) (8-oxa-2-azaspiro[4.5]decan-2-yl) methanone]
Kd (Vanin-1): < 100 nM

Structure (SMILES): O=C(c1ccn(Cc2c(F)cccc2F)c1)C(Cc1c(F)cccc1F)c1ccccc1 (stereo not shown) [Compound 3, 1-(1-(2,6-difluorobenzyl)-1H-pyrrol-3-yl)-3-(2,6-difluorophenyl)-2-phenylpropan-1-one]
Kd (Vanin-1): > 500 nM | activity against IL6, TNFA and MCP1 [1]: highly potent activity
